# Laboratory results published in US20230295088A1, “INSULIN SENSITIZERS FOR THE TREATMENT OF DIABETES MELLITUS” (University of Iowa Research Foundation, priority 2020, published 2023).
# “Also recorded” adds a separate entry of the source.
# Key:
# [1] = tested on: primary adipocytes; assay: Insulin-stimulated glucose uptake in primary adipocytes; format: cell-based, mouse
# Experimental: C3 potentiates insulin action in primary adipocytes and in live mice. Using HBG4 mice, insulin stimulated GLUT4 translocation of endogenous GLUT4 was measured in primary skeletal muscle fibers and primary adipocytes. Enhancement of insulin-stimulated translocation of endogenous GLUT4 was also shown in primary adipocytes in the presence of C3. In parallel dishes, increased insulin-stimulated glucose uptake in HBG4 primary adipocyte treated with C3 was found. […] To determine if the HBG4 mouse can be used to measure GLUT4 translocation in vivo, HBG4 mice were pretreated with daily IP injections of vehicle or 50 mg/Kg C3 for 3 days. On the day of the experiment, mice were injected with vehicle or insulin IP followed by a subcutaneous injection of LgBiT and substrate around the leg muscles. Mice were then anesthetized and placed into an IVIS system to measure luminescence. […] Baseline signal was detected in vehicle and C3 treated HBG4 mice. […] It also further confirms the insulin-sensitizing activity of C3 in vivo.
# [2] = tested on: lean mice; assay: Glucose tolerance test in lean mice; format: in vivo, mouse; conditions: single injection before GTT
# Experimental: C3 improves glucose tolerance in lean and obese insulin resistant mice. To test whether C3 improves glucose handling, lean mice were injected with vehicle or C3 30 minutes before performing a glucose tolerance test. […] To further determine if C3 can reverse glucose intolerance, WT mice were made insulin-resistant by feeding them a high fat diet (HFD) for a period of 10 weeks. Diet induced obese (DIO) mice were then injected with vehicle or C3 for 2 weeks while remaining on HFD. […] Together those results establish in vivo efficacy of C3 for the treatment of insulin resistance.
# [3] = target: T1, PPARg (Homo sapiens, UniProt P37231); assay: Luminescent PPARg reporter assay in vitro; format: cell-based
# T1 sequence (P37231 1-505): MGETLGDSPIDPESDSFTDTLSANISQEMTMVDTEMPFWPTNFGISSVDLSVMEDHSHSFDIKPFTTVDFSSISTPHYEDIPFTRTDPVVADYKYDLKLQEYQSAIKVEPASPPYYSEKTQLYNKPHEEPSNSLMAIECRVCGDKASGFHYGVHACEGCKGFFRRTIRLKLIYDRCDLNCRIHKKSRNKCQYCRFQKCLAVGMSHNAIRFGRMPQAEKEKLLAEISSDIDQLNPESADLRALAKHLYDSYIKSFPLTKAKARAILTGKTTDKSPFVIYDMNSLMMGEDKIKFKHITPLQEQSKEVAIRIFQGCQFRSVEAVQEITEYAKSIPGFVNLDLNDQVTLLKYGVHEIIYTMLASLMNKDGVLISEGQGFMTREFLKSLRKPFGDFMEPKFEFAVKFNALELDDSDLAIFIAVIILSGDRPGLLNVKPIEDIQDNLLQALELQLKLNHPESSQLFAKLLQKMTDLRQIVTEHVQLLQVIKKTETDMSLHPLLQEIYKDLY
# Text: (§1) C3 is not liver toxic and acts through a different mechanism than TZDs. […] Deleterious side effect or TZDs are due to their agonism of PPARg.
# [4] = tested on: endogenous GLUT4 in primary adipocytes; assay: Insulin-stimulated translocation of endogenous GLUT4 in HBG4 primary adipocytes; format: cell-based, mouse
# Experimental: Generating a mouse model for measurement of GLUT4 translocation ex vivo and in-vivo. To enable the validation of identified compounds in a relevant system, a mouse model in which the coding sequence for HiBiT was inserted in the first extracellular loop of endogenous GLUT4 using CRISPR/Cas9 (HBG4 mouse) was prepared. […] GLUT4 was detected in skeletal muscle, white adipose tissue, and brown adipose tissue but not in the brain, spleen, liver, or pancreas, thus, confirming the normal distribution of HiBit-labeled GLUT4 and the ability of this assay to detect endogenous GLUT4 in mouse tissues.
# C3 potentiates insulin action in primary adipocytes and in live mice. Using HBG4 mice, insulin stimulated GLUT4 translocation of endogenous GLUT4 was measured in primary skeletal muscle fibers and primary adipocytes. Enhancement of insulin-stimulated translocation of endogenous GLUT4 was also shown in primary adipocytes in the presence of C3. In parallel dishes, increased insulin-stimulated glucose uptake in HBG4 primary adipocyte treated with C3 was found. […] To determine if the HBG4 mouse can be used to measure GLUT4 translocation in vivo, HBG4 mice were pretreated with daily IP injections of vehicle or 50 mg/Kg C3 for 3 days. […] Mice were then anesthetized and placed into an IVIS system to measure luminescence. […] Baseline signal was detected in vehicle and C3 treated HBG4 mice. […]
# [5] = tested on: GLUT4 translocation in C2C12 myoblast cell line stably expressing HiBiT-GLUT4 (HBG4); assay: HiBiT (NanoBit) luminescence GLUT4 translocation assay in HBG4 C2C12 cells; format: cell-based, mouse
# Text: An assay was used to identify potentiators of insulin-stimulated GLUT4 translocation. In one embodiment, the assay employs Nanobit technology. This technology is based on the recombination of two complementary fragments, HiBiT and LgBiT, of the Nanoluc luciferase. HiBit was fused to an extracellular region of GLUT4 to allow for the rapid quantitation of its the surface density in live cells by adding the reconibinantly produced complementary fragment LgBiT and the luciferase substrate. Since LgBiT is not membrane permeant, only proteins at the plasma membrane are quantified. To measure GLUT4 translocation, a stable C2C12 myoblast cell line was prepared by expressing a HiBiT-tagged mouse GLUT4. […] The Chembridge Diverset library of 49,600 compounds was screened and 1264 hits were identified. A subset of those hits were selected and retested in the presence and absence of insulin.
# Development of a HTS assay for real-time measurement of GLUT4 translocation. To measure GLUT4 translocation in a homogenous and HIS amenable manner, NanoBit technology was used. This technology relies on the rapid recombination of 2 fragments of the Nanoluc luciferase (HiBit and LgBiT) with high affinity for each other. Fragments have no enzymatic activity on their own but generate a bright luminescent signal when recombined. A C2C12 myoblast cell line was prepared that stably expressed HiBiT-GLUT4 (HBG4), in which the small 11 amino acid HiBiT fragment was inserted into the first extracellular loop of GLUT4. A C-terminal mCherry was also added for microscopic detection. The C2C12 line was chosen as an in vitro model because it is derived from skeletal myoblasts and translocate GLUT4 in response to insulin. Detection of plasma membrane density of HBG4 is achieved by adding recombinant LgBit and substrate to live cells. The assay can be conducted as an endpoint where cells are incubated with insulin before measuring luminescence or as a kinetic assay by adding LgBiT and substrate at the beginning of the experiment and monitor real-time insulin-stimulated GLUT4 translocation.
# An assay to measure GLUT4 translocation in a homogenous and HIS amenable manner using NanoBit technology was developed. This technology relies on the rapid recombination of 2 fragments of the Nanoiuc luciferase (HiBit and LgBiT) with high affinity for each other. Fragments have no enzymatic activity on their own but generate a bright luminescent signal when recombined. A C2C12 myoblast cell line stably expressing HiBiT-GLUT4 (HBG4), in which the small 11 amino acid HiBiT fragment was inserted into the first extracellular loop of GLUT4 was prepared. A C-terminal mCherry was also added for microscopic detection (FIGS. 1A and B). The C2C12 line was chosen as an in-vitro model because it is derived from skeletal myoblasts and translocates GLUT4 in response to insulin. Detection of plasma membrane density of HBG4 is achieved by adding recombinant LgBit and substrate to live cells (FIG. 1C). The assay can be conducted as a kinetic assay by adding LgBiT and substrate at the beginning of the experiment and monitoring real-time insulin-stimulated GLUT4 translocation (FIGS. 1D and E).
# [6] = tested on: diet-induced obese (DIO) mice; assay: Glucose tolerance, fasting glucose and insulin in diet-induced obese (DIO) insulin-resistant mice; format: in vivo, mouse
# Experimental: To test whether C3 improves glucose handling, WT mice were made insulin-resistant by feeding them a high fat diet (HFD) for a period of 10 weeks. After 10 weeks, mice were injected with vehicle. C3 (20 mg/kg), or the TZD rosiglitazone (20 mg/kg) for 2 weeks while remaining on the HFD. […] To further test the in vivo efficacy of C3, a glucose tolerance test (GTT) was perfromed.
# To test whether C3 improves glucose handling, lean mice were injected with vehicle or C3 30 minutes before performing a glucose tolerance test. […] To further determine if C3 can reverse glucose intolerance, WT mice were made insulin-resistant by feeding them a high fat diet (HFD) for a period of 10 weeks. Diet induced obese (DIO) mice were then injected with vehicle or C3 for 2 weeks while remaining on HFD.
# [7] = tested on: liver; assay: Liver toxicity markers and liver triglyceride in treated mice; format: in vivo, mouse
# Text: as §1
# [8] = tested on: GLUT4 translocation in HBG4 mice; assay: In vivo GLUT4 translocation in HBG4 mice (IVIS luminescence); design: species or system mouse; conditions: HBG4 mice, daily IP 50 mg/Kg for 3 days, insulin IP
# Experimental: C3 potentiates insulin action in primary adipocytes and in live mice. Using HBG4 mice, insulin stimulated GLUT4 translocation of endogenous GLUT4 was measured in primary skeletal muscle fibers and primary adipocytes. Enhancement of insulin-stimulated translocation of endogenous GLUT4 was also shown in primary adipocytes in the presence of C3. In parallel dishes, increased insulin-stimulated glucose uptake in HBG4 primary adipocyte treated with C3 was found. […] To determine if the HBG4 mouse can be used to measure GLUT4 translocation in vivo, HBG4 mice were pretreated with daily IP injections of vehicle or 50 mg/Kg C3 for 3 days. On the day of the experiment, mice were injected with vehicle or insulin IP followed by a subcutaneous injection of LgBiT and substrate around the leg muscles. Mice were then anesthetized and placed into an IVIS system to measure luminescence. […] Baseline signal was detected in vehicle and C3 treated HBG4 mice. […]
# DIO HBG4 mice were treated with vehicle or C59 for 2 weeks and injected i.v. with an adenovirus coding for a secreted form of LgBiT (allowing LgBiT production and secretion predominantly by the liver into the circulation) 2 days prior to the experiment. Animal were then injected with saline or insulin 10 minutes before i.v. injection of substrate and luminescence imaging using an IVIS system.
# [9] = DIO mice, 2 weeks treatment (20 mg/kg)
smiles,measurement,setting,value
O=C(Nc1ccc(Cl)c(Cl)c1)C12CC3CC(CC(C3)C1)C2 [Compound C3],insulin-stimulated glucose uptake,[1],significantly improved; also recorded: increased
same,glucose clearance in glucose tolerance test,[2],drastically improved; also recorded: significantly accelerated
same,PPARg agonist activity,[3],did not activate; also recorded: no agonist activity; also recorded: neither C3 nor C59 have PPARγ agonist activity
same,insulin-stimulated translocation of endogenous GLUT4,[4],Enhancement
same,GLUT4 translocation on its own,"[5]; in the absence of insulin, HBG4 C2C12 cells",no effect
same,insulin-stimulated GLUT4 translocation,"[5]; in the presence of insulin, WT HBG4 C2C12 cells",significantly potentiated; also recorded: enhanced
same,glucose handling in glucose tolerance test,"[6]; DIO mice (HFD 10 weeks), injected for 2 weeks (20 mg/kg)",drastically improved; also recorded: rapidly cleared glucose; also recorded: very significant improvement
same,insulin response to the glucose challenge,"[6]; DIO mice, 20 mg/kg for 2 weeks, GTT",normal insulin response
same,fasting blood glucose,[6]; [9],significantly decreased
same,fasting plasma insulin,[6]; [9],significantly decreased
same,liver triglyceride content,"[7]; DIO mice, compared to saline treated mice",significant decrease
same,plasma level of liver enzyme ALT,[7]; treated mice,Neither liver toxicity markers were increased
same,plasma level of liver enzyme AST,[7]; treated mice,Neither liver toxicity markers were increased
same,insulin-induced luminescence (GLUT4 translocation) in vivo,[8],further increased
